# Measurements reported in patent US4595677A, “Substituted tetrapeptides” (Ciba-Geigy Corporation, priority 1982, dated 1986).
# Non-standard residues stand in square brackets, D forms with d. Residues, ends and D or L forms follow the SMILES beside them. *: point of attachment. Sta = CC(C)C[C@H](N)[C@@H](O)CC(=O)O; Cbz = O=C(OCc1ccccc1)*; Boc = CC(C)(C)OC(=O)*; Lac = C[C@H](O)C(=O)O; βAla = NCCC(=O)O; Sar = CNCC(=O)O
# Test: solubility in water of the isolated powder
# Type: physicochemical
# Conditions: lyophilised product
row,Compound,water solubility of the amorphous powder
1,"CC(C)C[C@H](NC(=O)[C@H](Cc1c[nH]cn1)NC(=O)[C@H](Cc1ccccc1)NC(=O)[C@@H]1CCCN1C(=O)[C@H](CCCNC(=N)N)NC(=O)[C@@H](N)CCCNC(=N)N)[C@@H](O)CC(=O)N(C)CC(=O)N[C@@H](Cc1c[nH]cn1)C(=O)N[C@@H](CCCCN)C(=O)O [Example 19, H-Arg-Arg-Pro-Phe-His-Sta-Sar-His-Lys-OH] (H-RRPFH[Sta][Sar]HK-OH)",readily water-soluble
2,Z-Arg-Arg-Pro-Phe-His-Sta-Lac-His-NH2 [Example 22],readily water-soluble
3,"CC(C)C[C@H](NC(=O)[C@H](Cc1c[nH]cn1)NC(=O)[C@H](Cc1ccccc1)NC(=O)[C@@H]1CCCN1C(=O)[C@H](Cc1c[nH]cn1)NC(=O)[C@@H]1CCCN1)[C@@H](O)CC(=O)N[C@H](C(=O)N[C@@H](Cc1ccc(O)cc1)C(=O)N[C@@H](CCCCN)C(=O)O)C(C)C [Example 1, H-Pro-His-Pro-Phe-His-Sta-Val-Tyr-Lys-OH×AcOH] (H-PHPFH[Sta]VYK-OH)",readily water-soluble

# Results, then the compound that gave them:
row,water solubility of the amorphous powder,Compound
1,water-soluble,Cbz-RRPFH[Sta][βAla]H-NH2 [Example 20]
2,water-soluble,"CC(C)C[C@H](NC(=O)[C@H](Cc1c[nH]cn1)NC(=O)[C@H](Cc1ccccc1)NC(=O)[C@@H]1CCCN1C(=O)[C@H](CCCNC(=N)N)NC(=O)[C@@H](N)CCCNC(=N)N)[C@@H](O)CC(=O)O[C@@H](C)C(=O)N[C@@H](Cc1c[nH]cn1)C(N)=O [Example 23, H-Arg-Arg-Pro-Phe-His-Sta-Lac-His-NH2] (H-RRPFH[Sta][Lac]H-NH2)"
3,readily water-soluble,Cbz-RRPFH[Sta][Sar]HK(Boc)-OMe [Example 16]
